Reference: PubChem BioAssay (NCI)
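In this assay, cells in 96-well plates receive the compound at five concentrations for 48 hours. Endpoints are linearly interpolated between the surrounding concentrations. TGI: total growth inhibition.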

Legend:
Test in all cases: growth of human tumour cells (NCI), 48 h
DMS 273 small cell lung = system: DMS 273 small cell lung
CAKI-1 renal = system: CAKI-1 renal
COLO 205 colon = system: COLO 205 colon
SK-MEL-5 melanoma = system: SK-MEL-5 melanoma
HCT-15 colon = system: HCT-15 colon
OVCAR-5 ovarian = system: OVCAR-5 ovarian
HCC-2998 colon = system: HCC-2998 colon
OVCAR-3 ovarian = system: OVCAR-3 ovarian
SNB-75 CNS = system: SNB-75 CNS
RPMI-8226 leukemia = system: RPMI-8226 leukemia
NCI-H23 lung = system: NCI-H23 lung
HCT-116 colon = system: HCT-116 colon
TK-10 renal = system: TK-10 renal
M14 melanoma = system: M14 melanoma
OVCAR-8 ovarian = system: OVCAR-8 ovarian
SN12C renal = system: SN12C renal
SNB-19 CNS = system: SNB-19 CNS
HOP-92 NSCLC = system: HOP-92 NSCLC
NCI-H226 lung = system: NCI-H226 lung
UO-31 renal = system: UO-31 renal
SF-539 CNS = system: SF-539 CNS
M19-MEL melanoma = system: M19-MEL melanoma
DLD-1 colon = system: DLD-1 colon
SK-MEL-2 melanoma = system: SK-MEL-2 melanoma
HL-60(TB) leukemia = system: HL-60(TB) leukemia
HT29 colon = system: HT29 colon
SR leukemia = system: SR leukemia
UACC-62 melanoma = system: UACC-62 melanoma
786-0 renal = system: 786-0 renal
K-562 leukemia = system: K-562 leukemia
SK-MEL-28 melanoma = system: SK-MEL-28 melanoma
IGROV1 ovarian = system: IGROV1 ovarian
SW-620 colon = system: SW-620 colon
U251 CNS = system: U251 CNS
EKVX NSCLC = system: EKVX NSCLC
KM12 colon = system: KM12 colon
SK-OV-3 ovarian = system: SK-OV-3 ovarian
NCI-H460 lung = system: NCI-H460 lung
LXFL 529 NSCLC = system: LXFL 529 NSCLC
RXF 393 renal = system: RXF 393 renal
SNB-78 CNS = system: SNB-78 CNS
MALME-3M melanoma = system: MALME-3M melanoma
ACHN renal = system: ACHN renal
DMS 114 small cell lung = system: DMS 114 small cell lung
MOLT-4 leukemia = system: MOLT-4 leukemia
KM20L2 colon = system: KM20L2 colon
SF-295 CNS = system: SF-295 CNS
LOX IMVI melanoma = system: LOX IMVI melanoma
CCRF-CEM leukemia = system: CCRF-CEM leukemia
NCI-H522 lung = system: NCI-H522 lung
UACC-257 melanoma = system: UACC-257 melanoma
XF 498 CNS = system: XF 498 CNS
A498 renal = system: A498 renal
HOP-62 NSCLC = system: HOP-62 NSCLC
A549 NSCLC = system: A549 NSCLC
OVCAR-4 ovarian = system: OVCAR-4 ovarian
HOP-18 NSCLC = system: HOP-18 NSCLC
SF-268 CNS = system: SF-268 CNS

With `C=CC1(CC)/C(=N\O)C(CC)(CC)C(=O)N1O` (stereo not drawn) the TGI (DMS 273 small cell lung) was > 100 µM, the TGI (CAKI-1 renal) was > 100 µM and the TGI (COLO 205 colon) was > 100 µM. The TGI (SK-MEL-5 melanoma) was > 100 µM, the TGI (HCT-15 colon) was > 100 µM and the TGI (OVCAR-5 ovarian) was > 100 µM. The TGI (HCC-2998 colon) was > 100 µM, the TGI (OVCAR-3 ovarian) was > 100 µM and the TGI (SNB-75 CNS) was > 100 µM. For the same compound, the TGI (RPMI-8226 leukemia) was > 100 µM, the TGI (NCI-H23 lung) was > 100 µM and the TGI (HCT-116 colon) was > 100 µM. The TGI (TK-10 renal) was > 100 µM, the TGI (M14 melanoma) was > 100 µM and the TGI (OVCAR-8 ovarian) was > 100 µM. For the same compound, the TGI (SN12C renal) was > 100 µM, the TGI (SNB-19 CNS) was > 100 µM and the TGI (HOP-92 NSCLC) was > 100 µM. The TGI (NCI-H226 lung) was > 100 µM, the TGI (UO-31 renal) was > 100 µM and the TGI (SF-539 CNS) was > 100 µM. For the same compound, the TGI (M19-MEL melanoma) was > 100 µM, the TGI (DLD-1 colon) was > 100 µM and the TGI (SK-MEL-2 melanoma) was > 100 µM. The TGI (HL-60(TB) leukemia) was > 100 µM, the TGI (HT29 colon) was > 100 µM and the TGI (SR leukemia) was > 100 µM. For the same compound, the TGI (UACC-62 melanoma) was > 100 µM, the TGI (786-0 renal) was > 100 µM and the TGI (K-562 leukemia) was > 100 µM. The TGI (SK-MEL-28 melanoma) was > 100 µM, the TGI (IGROV1 ovarian) was > 100 µM and the TGI (SW-620 colon) was > 100 µM. The TGI (U251 CNS) was > 100 µM, the TGI (EKVX NSCLC) was > 100 µM and the TGI (KM12 colon) was > 100 µM. The TGI (SK-OV-3 ovarian) was > 100 µM, the TGI (NCI-H460 lung) was > 100 µM and the TGI (LXFL 529 NSCLC) was > 100 µM. For the same compound, the TGI (RXF 393 renal) was > 100 µM, the TGI (SNB-78 CNS) was > 100 µM and the TGI (MALME-3M melanoma) was > 100 µM. For the same compound, the TGI (ACHN renal) was > 100 µM, the TGI (DMS 114 small cell lung) was > 100 µM and the TGI (MOLT-4 leukemia) was > 100 µM. The TGI (KM20L2 colon) was > 100 µM, the TGI (SF-295 CNS) was > 100 µM and the TGI (LOX IMVI melanoma) was > 100 µM. The TGI (CCRF-CEM leukemia) was > 100 µM, the TGI (NCI-H522 lung) was > 100 µM and the TGI (UACC-257 melanoma) was > 100 µM. For the same compound, the TGI (XF 498 CNS) was > 100 µM, the TGI (A498 renal) was > 100 µM and the TGI (HOP-62 NSCLC) was > 100 µM. For the same compound, the TGI (A549 NSCLC) was > 100 µM and the TGI (OVCAR-4 ovarian) was > 100 µM.
For `O=C1CN2C(Cl)(Cl)C2(c2ccccc2)c2cc(Cl)ccc2N1CC1CC1` (stereo not drawn), the TGI (DMS 273 small cell lung) was 63.2 µM, the TGI (CAKI-1 renal) was > 100 µM and the TGI (COLO 205 colon) was 38.8 µM. For the same compound, the TGI (SK-MEL-5 melanoma) was 35.7 µM, the TGI (HCT-15 colon) was 48.9 µM and the TGI (OVCAR-5 ovarian) was > 100 µM. The TGI (HCC-2998 colon) was 33.4 µM, the TGI (OVCAR-3 ovarian) was 33.8 µM and the TGI (SNB-75 CNS) was 94.8 µM. For the same compound, the TGI (RPMI-8226 leukemia) was 81.8 µM, the TGI (NCI-H23 lung) was 51.7 µM and the TGI (HCT-116 colon) was 35.8 µM. For the same compound, the TGI (TK-10 renal) was > 100 µM, the TGI (M14 melanoma) was 36.6 µM and the TGI (OVCAR-8 ovarian) was 29.8 µM. For the same compound, the TGI (HOP-18 NSCLC) was 81.2 µM, the TGI (SN12C renal) was 35.5 µM and the TGI (HOP-92 NSCLC) was 26.2 µM. It also gave a TGI (NCI-H226 lung) of 41.6 µM, a TGI (UO-31 renal) of 66.6 µM and a TGI (M19-MEL melanoma) of 93.8 µM. It also gave a TGI (DLD-1 colon) of 44.2 µM, a TGI (SK-MEL-2 melanoma) of 33.4 µM and a TGI (HT29 colon) of 44.9 µM. It also gave a TGI (SR leukemia) of 68.6 µM, a TGI (K-562 leukemia) of 65.8 µM and a TGI (SK-MEL-28 melanoma) of 32.9 µM. For the same compound, the TGI (SW-620 colon) was > 100 µM, the TGI (U251 CNS) was 34.7 µM and the TGI (EKVX NSCLC) was 89.1 µM. For the same compound, the TGI (KM12 colon) was 30.2 µM, the TGI (NCI-H460 lung) was 32 µM and the TGI (LXFL 529 NSCLC) was > 100 µM. The TGI (RXF 393 renal) was 35.9 µM, the TGI (MALME-3M melanoma) was 32 µM and the TGI (ACHN renal) was 65.8 µM. It also gave a TGI (DMS 114 small cell lung) of 85.8 µM, a TGI (MOLT-4 leukemia) of 54.8 µM and a TGI (KM20L2 colon) of 88.5 µM. For the same compound, the TGI (SF-295 CNS) was 47.1 µM, the TGI (LOX IMVI melanoma) was 31.6 µM and the TGI (CCRF-CEM leukemia) was 61.4 µM. The TGI (NCI-H522 lung) was 38.2 µM, the TGI (UACC-257 melanoma) was 40.9 µM and the TGI (HOP-62 NSCLC) was 50.3 µM. For the same compound, the TGI (SF-268 CNS) was 86.1 µM and the TGI (OVCAR-4 ovarian) was > 100 µM.
